Reference: US9169223B2, “Functionalised antifouling compounds and use thereof” (Agency for Science, Technology and Research, priority 2010, dated 2015)
Values after ≈ are worked out from the molar mass of the structure shown. Read-outs that look alike come from different tables or passages of the source.

Legend:
barnacle cyprids = experiment: Settlement assay with barnacle cyprids; format: in vivo, Amphibalanus amphitrite; details: for TR (LD50/ED50): therapeutic ratio, LD50 (nauplii) / ED50 (cyprids); for IC50: Amphibalanus amphitrite, 24 h
Method: (§1) Biological assays were conducted with larval barnacles. Barnacles are dominant and tenacious members of marine fouling communities, and often serve as a substrate for less resistant organisms. Therefore, historically they have been used as a model organism for antifouling studies. To determine the biological response of larvae to test compounds, two bioassays were performed: settlement (using settlement stage cyprids), and toxicity (using nauplii).
(§2) Stock solutions of each compound were made at 50 mg/ml. Pure compounds were diluted in DMSO and sonicated. Stock solutions were stored at −20° C. in 4 ml amber screw cap vials until use. For bioassays, a small amount of stock solution was diluted in 1 μm filtered seawater (in a glass scintillation vial). The solution was then sonicated for 10 minutes. To obtain the desired concentration range, serial dilutions of the test solution were made. As control, a serial dilution of the equivalent amounts of DMSO in seawater was used.
Nauplii were cultured as described above, and then reared at 25° C. on an algal mixture of 1:1 v/v of Tetraselmis suecica and Chaetoceros muelleri (approximately density 5×10^5 cells per ml). Under these conditions, nauplii typically metamorphose to cyprids in 5 days. Cyprids were aged at 4° C. for 2 days.
Settlement assays were conducted in 7 ml neutral glass vials (Samco® T103/V1; 34×23 mm diameter). For assays, each solution was made at twice the desired final concentration; 0.5 ml of this solution was transferred to vials. To each vial, cyprids were added by transferring 0.5 ml filtered seawater containing 20-40 aged cyprids. As in toxicity assays: each compound at each concentration was run in triplicate with cyprids from a single batch; two controls (filtered seawater and DMSO) were run along with each assays; and the overall assay was conducted twice, using two different batches of cyprids.
Assays were conducted for 24 hours, after which time the number of settled cyprids, the number of free swimming (unsettled) cyprids, and the number of dead cyprids were counted for each vial. Both metamorphosed, juvenile barnacles and cyprids that had committed to settlement (glued themselves to the vial), but had not yet metamorphosed, were counted as ‘settled’. Data was expressed as percent settlement. […] If ED50 could not be calculated using probit analysis, values were extrapolated based on plotted data.

[1] = tested on: stage II naupliar larvae of the barnacle Amphibalanus amphitrite; experiment: Toxicity assay with barnacle nauplii; format: in vivo
Method: as §1, with “nauplii). Procedures followed methods standard in the field, which were first described by Rittschof et al. (1992).” for “nauplii).”
as §2
Toxicity assays employed stage II naupliar larvae of the barnacle Amphibalanus amphitrite (previously Balanus amphitrite: Pitombo, 2004). Assay procedures were modified from Rittschof et al. (1992). Adult A. amphitrite were collected from inter-tidal areas near the Kranji mangrove, Singapore. Larval culture was based on Rittschof et al. (1984). Following collection, nauplii were concentrated for use in bioassays by placing a fiber optic light source at one side of the container, and pipetting from the resulting dense cloud of nauplii.
In order to determine LD50 values for each compound, compounds were tested over a range of concentrations between 0-50 μg/ml. For each assay, each compound at each concentration was tested in triplicate with a single batch of nauplii. The overall assay was conducted twice, using two different batches of nauplii. Two controls were run along with each assay (in triplicate): filtered seawater only, and DMSO at […] (since DMSO was used as a solvent for test compounds, this concentration is equivalent to the concentration of DMSO in the highest test compound concentration).
For assays, approximately 20 nauplii (in 50 μl filtered seawater) were added to 1 ml test solution or control, in a 2 ml glass vial (La Pha Pack® PN 11-14-0544). Assays were run for 22-24 hours at 25-27° C. After this time, living and dead nauplii were counted using a Bogorov tray. Nauplii that were approaching death were scored as dead. Data for all assays was combined and LD50 was calculated (where possible) using a probit analysis (Libermann, 1983). If LD50 could not be calculated using probit analysis, values were extrapolated based on plotted data.

[2] = anti-settlement, barnacle cyprids, 24 hours, concentration causing 50% reduction in settlement vs controls
[3] = Amphibalanus amphitrite (barnacle), stage II naupliar larvae, in vivo
[4] = anti-settlement, barnacle cyprids, 24 hours, concentration causing 50% reduction in settlement vs controls, read-out: ED50 (the source's name)

For `CCCCC(C(=O)N1CCCCC1)c1ccc(OC)cc1OC` (single isomer, unassigned) [Compound 15.6], the ED50 (barnacle cyprids; [2]) was 9.12 µg/mL (≈ 28.5 µM), the “TR (LD50/ED50)” value (barnacle cyprids) was 3.64 and the LD50 [1, 3] was 33.21 µg/mL.

With `CCCCC(C(=O)N1CCCCC1)c1ccccc1CO` (single isomer, unassigned) [Compound 16.1] the ED50 (barnacle cyprids; [2]) was 4.11 µg/mL (≈ 14.2 µM), the “TR (LD50/ED50)” value (barnacle cyprids) was over 12.17 and the LD50 [1, 3] was over 50 µg/mL.

`CCCCC(C(=O)N1CCCCC1)c1ccccc1` (centres unmarked) [Compound 12.1, reference compound] was tested, and the IC50 (barnacle cyprids; [4]) was 1.5 µg/mL (≈ 5.78 µM), the “TR (LD50/ED50)” value (barnacle cyprids) was 6.07 and the LD50 [1, 3] was 9.11 µg/mL.

With `CCCCC(CCCC)C(=O)N1CCCCC1` [Compound 12.2, reference compound] the IC50 (barnacle cyprids; [4]) was 2 µg/mL (≈ 8.35 µM), the “TR (LD50/ED50)” value (barnacle cyprids) was 4.92 and the LD50 [1, 3] was 9.83 µg/mL.

In the case of `CCCCC(C(=O)N1CCCCC1)c1ccc(OC)cc1` (centres unmarked) [Compound 15.1, 2-(4-methoxy)phenyl-(1-piperidin-1-yl)hexanone], the IC50 (barnacle cyprids; [4]) is reported as 0.19 µg/mL (≈ 0.656 µM), the “TR (LD50/ED50)” value (barnacle cyprids) is reported as 120.79 and the LD50 [1, 3] is reported as 22.95 µg/mL.

In the case of `CCCCC(C(=O)N1CCCCC1)c1cccc(OC)c1` (centres unmarked) [Compound 15.2], the IC50 (barnacle cyprids; [4]) is reported as 1.46 µg/mL (≈ 5.04 µM), the “TR (LD50/ED50)” value (barnacle cyprids) is reported as over 17.12 and the LD50 [1, 3] is reported as over 25 µg/mL.

`CCCCC(C(=O)N1CCCCC1)c1ccccc1OC` (centres unmarked) [Compound 15.3] was tested, and the IC50 (barnacle cyprids; [4]) was 2.85 µg/mL (≈ 9.85 µM), the “TR (LD50/ED50)” value (barnacle cyprids) was 1.29 and the LD50 [1, 3] was 3.67 µg/mL.

In the case of `CCCCC(C(=O)N1CCCCC1)c1cc(OC)cc(OC)c1` (centres unmarked) [Compound 15.4], the IC50 (barnacle cyprids; [4]) is reported as 3.29 µg/mL (≈ 10.3 µM), the “TR (LD50/ED50)” value (barnacle cyprids) is reported as 2.5 and the LD50 [1, 3] is reported as 8.22 µg/mL.

With `CCCCC(C(=O)N1CCCCC1)c1cc(OC)ccc1OC` (centres unmarked) [Compound 15.5] the IC50 (barnacle cyprids; [4]) was 2.16 µg/mL (≈ 6.76 µM), the “TR (LD50/ED50)” value (barnacle cyprids) was 4.01 and the LD50 [1, 3] was 8.66 µg/mL.

For `CCCCC(C(=O)N1CCCCC1)c1ccc(OC(C)=O)cc1` (centres unmarked) [Compound 16.4, 4-(1-oxo-1-(piperidin-1-yl)hexan-2-yl)phenyl acetate], the IC50 (barnacle cyprids; [4]) was 0.23 µg/mL, the “TR (LD50/ED50)” value (barnacle cyprids) was 118.26 and the LD50 [1, 3] was 27.2 µg/mL.

`CCCCC(C(=O)N1CCCCC1)c1ccc(O)cc1` (centres unmarked) [Compound 16.5, 2-(4-hydroxyphenyl)-1-(piperidin-1-yl)hexan-1-one] was tested, and the IC50 (barnacle cyprids; [4]) was 0.19 µg/mL (≈ 0.69 µM), the “TR (LD50/ED50)” value (barnacle cyprids) was 90.26 and the LD50 [1, 3] was 17.15 µg/mL.

For `CCCCC(C(=O)N1CCCCC1)c1ccc(OCCO)cc1` (centres unmarked) [Compound 16.6, 2-(4-(2-hydroxyethoxy)phenyl)-1-(piperidin-1-yl)hexan-1-one], the IC50 (barnacle cyprids; [4]) was 9.25 µg/mL (≈ 29 µM), the “TR (LD50/ED50)” value (barnacle cyprids) was over 5.41 and the LD50 [1, 3] was over 50 µg/mL.

`CCCCC(C(=O)N1CCCCC1)c1ccc(OCC(=O)OC)cc1` (centres unmarked) [Compound 16.7, Methyl 2-(4-(1-oxo-1-(piperidin-1-yl)hexan-2-yl)phenoxy)acetate] was tested, and the IC50 (barnacle cyprids; [4]) was 26.9 µg/mL (≈ 77.4 µM), the “TR (LD50/ED50)” value (barnacle cyprids) was 0.91 and the LD50 [1, 3] was 24.58 µg/mL.

With `CCCCC(C(=O)N1CCCCC1)c1ccc(OCCOC(C)=O)cc1` (centres unmarked) [Compound 16.8, 2-(4-(1-oxo-1-(piperidin-1-yl)hexan-2-yl)phenoxy)ethyl acetate] the IC50 (barnacle cyprids; [4]) was 29.1 µg/mL, the “TR (LD50/ED50)” value (barnacle cyprids) was 1.72 and the LD50 [1, 3] was over 50 µg/mL.

In the case of `CCCCC(C(=O)N1CCCCC1)c1ccc(OCC(=O)O)cc1` (centres unmarked) [Compound 16.9, 2-(4-(1-oxo-1-(piperidin-1-yl)hexan-2-yl)phenoxy)acetic acid], the IC50 (barnacle cyprids; [4]) is reported as over 50 µg/mL and the LD50 [1, 3] is reported as over 50 µg/mL.

For `CCCCC(C(=O)N1CCCCC1)c1ccc(OCC[Si](C)(C)C)cc1` (centres unmarked) [Compound 16.10, 1-(piperidin-1-yl)-2-(4-(2-(trimethylsilyl)ethoxy)phenyl)hexan-1-one], the IC50 (barnacle cyprids; read-out: ED50) was 3.49 µg/mL (≈ 9.29 µM), the “TR (LD50/ED50)” value (barnacle cyprids) was over 14.33 and the LD50 ([1]; toxicity, barnacle nauplii, 22-24 hours, 0-50 μg/ml) was over 50 µg/mL.

`C=CC(=O)Oc1ccc(C(CCCC)C(=O)N2CCCCC2)cc1` (centres unmarked) [Compound 16.11, 4-(1-oxo-1-(piperidin-1-yl)hexan-2-yl)phenyl acrylate] was tested, and the IC50 (barnacle cyprids; [4]) was 1.53 µg/mL (≈ 4.64 µM), the “TR (LD50/ED50)” value (barnacle cyprids) was 4.29 and the LD50 [1, 3] was 6.57 µg/mL.

With `C=CCCCCC(C(=O)N1CCCCC1)c1ccc(OC)cc1` (centres unmarked) [Compound 17.1, 2-(4-methoxyoxyphenyl)-1-(piperidin-1-yl)oct-7-en-1-one] the IC50 (barnacle cyprids; [4]) was 2.37 µg/mL (≈ 7.51 µM), the “TR (LD50/ED50)” value (barnacle cyprids) was 3.91 and the LD50 [1, 3] was 9.27 µg/mL.

For `CCCCC(C(=O)N(C)C)c1ccc(OC)cc1` (centres unmarked) [Compound 17.2, 2-(4-methoxyphenyl)-N,N-dimethylhexanamide], the IC50 (barnacle cyprids; [4]) was 8.69 µg/mL (≈ 34.9 µM), the “TR (LD50/ED50)” value (barnacle cyprids) was over 5.75 and the LD50 [1, 3] was over 50 µg/mL.

With `C=CCCCCC(C(=O)N(C)C)c1ccc(OC)cc1` (centres unmarked) [Compound 17.3, 2-(4-methoxyphenyl)-N,N-dimethyloct-7-enamide] the IC50 (barnacle cyprids; [4]) was 2.85 µg/mL (≈ 10.3 µM), the “TR (LD50/ED50)” value (barnacle cyprids) was 6.53 and the LD50 [1, 3] was 18.61 µg/mL.

`CCCCC(C(=O)N1CCCCC1)c1ccccc1O` (centres unmarked) [Compound 17.4] was tested, and the IC50 (barnacle cyprids; [4]) was 0.65 µg/mL (≈ 2.36 µM), the “TR (LD50/ED50)” value (barnacle cyprids) was 22.49 and the LD50 [1, 3] was 14.62 µg/mL.

With `CCCCC(C(=O)N1CCCCC1)c1cccc(O)c1` (centres unmarked) [Compound 17.5] the IC50 (barnacle cyprids; [4]) was 3.44 µg/mL (≈ 12.5 µM), the “TR (LD50/ED50)” value (barnacle cyprids) was 7.31 and the LD50 [1, 3] was 25.14 µg/mL.

For `C=CCCCCC(C(=O)N1CCCCC1)c1ccc(O)cc1` (centres unmarked) [Compound 17.6, 2-(4-hydroxyphenyl)-1-(piperidin-1-yl)oct-7-en-1-one], the IC50 (barnacle cyprids; [4]) was 2.14 µg/mL (≈ 7.1 µM), the “TR (LD50/ED50)” value (barnacle cyprids) was 4.59 and the LD50 [1, 3] was 9.82 µg/mL.

For `CCCCC(C(=O)N(C)C)c1ccc(O)cc1` (centres unmarked) [Compound 17.7, 2-(4-hydroxyphenyl)-N,N-dimethylhexanamide], the IC50 (barnacle cyprids; [4]) was 34.1 µg/mL (≈ 145 µM), the “TR (LD50/ED50)” value (barnacle cyprids) was over 1.46 and the LD50 [1, 3] was over 50 µg/mL.

`C=CCCCCC(C(=O)N(C)C)c1ccc(O)cc1` (centres unmarked) [Compound 17.8, 2-(4-hydroxyphenyl)-N,N-dimethyloct-7-enamide] was tested, and the IC50 (barnacle cyprids; [4]) was 4.29 µg/mL (≈ 16.4 µM), the “TR (LD50/ED50)” value (barnacle cyprids) was 2.90 and the LD50 [1, 3] was 12.46 µg/mL.

`CCCCC(C(=O)N1CCCCC1)c1ccc(C(=O)O)cc1` (centres unmarked) [Compound 17.9, 4-(1-oxo-1-(piperidin-1-yl)hexan-2-yl)benzoic acid] was tested, and the IC50 (barnacle cyprids; [4]) was over 50 µg/mL, the “TR (LD50/ED50)” value (barnacle cyprids) was 1 and the LD50 [1, 3] was over 50 µg/mL.
